Reference: patent US20080038359A1, “Stable Nanoparticle Formulations” (SANOFI-AVENTIS U.S. LLC, priority 2005, published 2008)

Columns and labels:
[1] = generally known; cited from earlier work
[2] = Solubility of Compound B in soy oil, estimated visually; type: physicochemical; conditions: oil or lipid, thermodynamic from solid; visual estimate by gradual addition of soy oil
Method: The solubility of Compound B in soy oil was initially estimated visually by gradual addition of soy oil to a weighed amount of the drug substance until the oil was almost clear (visually). An estimate of the drug substance in oil was calculated from the total amount of oil added.

| solubility [2] [µg/mL] | Compound | solubility in oils [1] |
| --- | --- | --- |
| – | CCCCc1oc2ccc(C(=O)OC(C)C)cc2c1C(=O)c1ccc(CCCN(CCCC)CCCC)cc1.O=C(O)/C=C/C(=O)O [Compound C, Isopropyl 2-butyl-3-[4-[3-(dibutylamino)propyl]benzoyl]-1-benzofuran-5-carboxylate fumarate] | low solubility |
| < 1000 | Cn1c2ccc(F)cc2c2c(C(=O)N3CCCC3)cn(-c3ccccc3)c(=O)c21 [Compound B, 6-Fluoro-9-methyl-2-phenyl-4-(pyrrolidin-1-ylcarbonyl)-2,9-dihydro-1H-pyrido[3,4-b]indol-1-one] | – |
